According to ChEMBL document CHEMBL5291721, “A preclinical secondary pharmacology resource illuminates target-adverse drug reaction associations of marketed drugs” (Nat Commun, 2023):

Tests used:
[1] = target: T1, Mu-type opioid receptor (Homo sapiens, UniProt P35372)
[2] = target: Melanocortin receptor 4 (Homo sapiens, UniProt P32245)
[3] = target: T2, 5-hydroxytryptamine receptor 1A (Homo sapiens, UniProt P08908); type: functional, cell-based
T2 sequence (P08908 whole entry): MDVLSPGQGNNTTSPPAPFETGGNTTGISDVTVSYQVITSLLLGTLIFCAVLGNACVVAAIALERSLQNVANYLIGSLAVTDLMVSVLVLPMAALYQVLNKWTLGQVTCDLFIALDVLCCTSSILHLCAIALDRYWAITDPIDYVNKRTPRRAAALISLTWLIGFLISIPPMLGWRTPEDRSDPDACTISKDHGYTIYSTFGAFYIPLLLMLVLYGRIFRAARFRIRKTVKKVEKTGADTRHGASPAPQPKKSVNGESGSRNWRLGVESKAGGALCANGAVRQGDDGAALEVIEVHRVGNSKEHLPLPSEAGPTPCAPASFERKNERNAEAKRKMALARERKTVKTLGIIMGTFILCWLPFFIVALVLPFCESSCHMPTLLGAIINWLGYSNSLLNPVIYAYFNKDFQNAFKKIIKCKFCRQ

[4] = target: T3, Cannabinoid receptor 1 (Homo sapiens, UniProt P21554)
T3 sequence (P21554 whole entry): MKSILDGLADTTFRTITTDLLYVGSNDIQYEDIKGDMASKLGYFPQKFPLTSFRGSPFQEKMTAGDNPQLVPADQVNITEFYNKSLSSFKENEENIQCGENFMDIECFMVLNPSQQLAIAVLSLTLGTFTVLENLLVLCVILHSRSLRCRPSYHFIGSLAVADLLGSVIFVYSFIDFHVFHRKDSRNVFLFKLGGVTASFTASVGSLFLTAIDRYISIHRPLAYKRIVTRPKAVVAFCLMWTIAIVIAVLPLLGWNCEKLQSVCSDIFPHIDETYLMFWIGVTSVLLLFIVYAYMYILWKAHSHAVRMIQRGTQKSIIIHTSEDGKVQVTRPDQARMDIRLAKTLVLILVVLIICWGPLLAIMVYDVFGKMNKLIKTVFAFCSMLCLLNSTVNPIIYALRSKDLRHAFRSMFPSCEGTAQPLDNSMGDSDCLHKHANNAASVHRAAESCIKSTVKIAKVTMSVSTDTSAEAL

[5] = target: T4, Alpha-1A adrenergic receptor (Homo sapiens, UniProt P35348)
T4 sequence (P35348 whole entry): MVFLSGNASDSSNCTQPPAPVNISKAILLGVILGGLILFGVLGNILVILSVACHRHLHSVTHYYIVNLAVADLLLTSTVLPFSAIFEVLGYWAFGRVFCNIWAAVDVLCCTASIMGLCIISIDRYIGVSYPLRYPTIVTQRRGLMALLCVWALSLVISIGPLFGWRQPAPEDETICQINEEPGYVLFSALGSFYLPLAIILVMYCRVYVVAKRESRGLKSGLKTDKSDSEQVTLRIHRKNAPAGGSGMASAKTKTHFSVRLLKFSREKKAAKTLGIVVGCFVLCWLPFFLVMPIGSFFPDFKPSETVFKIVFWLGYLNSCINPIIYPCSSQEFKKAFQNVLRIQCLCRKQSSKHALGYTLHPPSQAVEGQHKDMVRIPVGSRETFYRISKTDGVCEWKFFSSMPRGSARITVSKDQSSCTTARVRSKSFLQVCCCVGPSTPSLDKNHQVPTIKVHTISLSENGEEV

[6] = target: T1, Mu-type opioid receptor; assay: biochemical; type: functional
[7] = target: Beta-2 adrenergic receptor (Homo sapiens, UniProt P07550); type: functional, cell-based
Sequence of Beta-2 adrenergic receptor (P07550 whole entry): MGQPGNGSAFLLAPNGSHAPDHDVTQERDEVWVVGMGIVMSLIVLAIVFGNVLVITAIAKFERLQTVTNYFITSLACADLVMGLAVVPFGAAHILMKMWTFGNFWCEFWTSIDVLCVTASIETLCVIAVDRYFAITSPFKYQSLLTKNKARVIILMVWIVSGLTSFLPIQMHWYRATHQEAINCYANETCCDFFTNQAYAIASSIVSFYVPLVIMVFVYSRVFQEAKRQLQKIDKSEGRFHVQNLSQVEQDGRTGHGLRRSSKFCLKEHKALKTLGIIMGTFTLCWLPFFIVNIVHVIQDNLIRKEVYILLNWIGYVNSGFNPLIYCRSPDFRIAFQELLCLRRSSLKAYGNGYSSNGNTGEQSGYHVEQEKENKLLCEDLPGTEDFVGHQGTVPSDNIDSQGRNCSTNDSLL

[8] = target: T3, Cannabinoid receptor 1; type: functional, cell-based
[9] = target: T3, Cannabinoid receptor 1; type: functional, cell-based; remark: listed apart in the source
[10] = target: T5, Muscarinic acetylcholine receptor M1 (Homo sapiens, UniProt P11229); type: functional
T5 sequence (P11229 whole entry): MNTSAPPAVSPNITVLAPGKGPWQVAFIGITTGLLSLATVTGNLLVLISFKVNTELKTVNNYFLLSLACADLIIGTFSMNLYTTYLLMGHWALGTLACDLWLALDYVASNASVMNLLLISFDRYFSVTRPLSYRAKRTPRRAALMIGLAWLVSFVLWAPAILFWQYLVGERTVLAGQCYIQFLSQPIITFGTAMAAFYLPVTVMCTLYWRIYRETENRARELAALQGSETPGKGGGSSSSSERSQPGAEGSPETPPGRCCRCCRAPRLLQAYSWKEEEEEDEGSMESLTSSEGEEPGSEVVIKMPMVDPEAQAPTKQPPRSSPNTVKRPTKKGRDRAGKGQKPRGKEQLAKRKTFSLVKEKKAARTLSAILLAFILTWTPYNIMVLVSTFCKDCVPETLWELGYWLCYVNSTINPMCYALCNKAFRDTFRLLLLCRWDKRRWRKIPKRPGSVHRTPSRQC

[11] = target: T6, Alpha-2B adrenergic receptor (Homo sapiens, UniProt P18089)
T6 sequence (P18089 whole entry): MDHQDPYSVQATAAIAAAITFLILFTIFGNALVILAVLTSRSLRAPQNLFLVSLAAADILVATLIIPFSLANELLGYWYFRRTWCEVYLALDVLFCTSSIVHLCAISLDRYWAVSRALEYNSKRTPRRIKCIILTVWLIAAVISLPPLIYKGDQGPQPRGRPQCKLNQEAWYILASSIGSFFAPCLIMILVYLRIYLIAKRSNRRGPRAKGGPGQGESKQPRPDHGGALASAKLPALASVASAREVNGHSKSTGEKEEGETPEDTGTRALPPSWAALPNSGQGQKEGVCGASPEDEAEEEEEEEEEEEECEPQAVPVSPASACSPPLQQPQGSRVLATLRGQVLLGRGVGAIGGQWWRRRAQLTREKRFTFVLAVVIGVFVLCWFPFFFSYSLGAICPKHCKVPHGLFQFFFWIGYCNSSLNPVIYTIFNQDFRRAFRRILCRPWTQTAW

[12] = target: Histamine H1 receptor (Homo sapiens, UniProt P35367)
Sequence of Histamine H1 receptor (P35367 whole entry): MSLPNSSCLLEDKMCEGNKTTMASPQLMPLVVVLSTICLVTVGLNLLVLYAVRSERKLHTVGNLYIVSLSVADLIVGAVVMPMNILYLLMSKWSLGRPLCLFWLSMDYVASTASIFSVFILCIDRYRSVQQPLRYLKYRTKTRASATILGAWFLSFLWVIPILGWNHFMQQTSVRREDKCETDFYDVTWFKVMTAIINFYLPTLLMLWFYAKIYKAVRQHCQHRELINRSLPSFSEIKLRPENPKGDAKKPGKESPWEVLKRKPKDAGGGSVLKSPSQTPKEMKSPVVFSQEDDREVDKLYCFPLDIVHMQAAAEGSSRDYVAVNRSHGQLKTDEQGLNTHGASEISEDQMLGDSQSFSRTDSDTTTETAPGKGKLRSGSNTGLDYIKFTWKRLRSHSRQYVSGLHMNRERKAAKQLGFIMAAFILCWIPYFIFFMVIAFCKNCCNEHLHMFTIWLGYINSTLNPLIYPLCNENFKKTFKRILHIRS
Note: assay procedure not described here.

Sequence of Melanocortin receptor 4 (P32245 whole entry): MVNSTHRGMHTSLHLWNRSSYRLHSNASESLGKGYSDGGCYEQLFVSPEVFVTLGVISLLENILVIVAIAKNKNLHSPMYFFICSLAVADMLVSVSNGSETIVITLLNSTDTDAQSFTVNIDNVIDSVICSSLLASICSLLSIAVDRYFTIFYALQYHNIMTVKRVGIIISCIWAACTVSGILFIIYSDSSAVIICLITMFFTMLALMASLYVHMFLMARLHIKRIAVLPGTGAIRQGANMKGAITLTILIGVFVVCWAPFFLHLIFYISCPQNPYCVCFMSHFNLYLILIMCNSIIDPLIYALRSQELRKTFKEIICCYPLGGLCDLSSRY
T1 sequence (P35372 whole entry): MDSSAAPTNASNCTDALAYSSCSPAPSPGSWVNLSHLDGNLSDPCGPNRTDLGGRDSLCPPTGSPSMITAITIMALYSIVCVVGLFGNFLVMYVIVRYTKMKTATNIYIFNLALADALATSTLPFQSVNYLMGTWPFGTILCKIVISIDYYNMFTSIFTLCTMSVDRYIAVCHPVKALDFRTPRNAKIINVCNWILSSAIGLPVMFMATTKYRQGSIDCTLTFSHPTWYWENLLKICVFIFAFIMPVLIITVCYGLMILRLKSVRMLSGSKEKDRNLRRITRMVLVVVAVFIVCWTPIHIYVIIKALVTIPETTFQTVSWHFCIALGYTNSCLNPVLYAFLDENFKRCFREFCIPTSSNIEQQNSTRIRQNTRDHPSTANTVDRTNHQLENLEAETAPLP

CCC1(CCC(C)C)C(=O)NC(=O)NC1=O [AMOBARBITAL]
AC50 [1]: > 30 µM
AC50 [2]: > 10 µM
AC50 [3]: > 10 µM
AC50 [4]: > 10 µM
AC50 [5]: > 10 µM

COc1ccc(C2C(=O)c3ccccc3C2=O)cc1 [ANISINDIONE]
AC50 [1]: > 30 µM
AC50 [2]: > 10 µM
AC50 [3]: > 10 µM
AC50 [4]: > 10 µM
AC50 [6]: > 30 µM
AC50 [5]: > 30 µM

Cc1cc(=O)n(-c2ccccc2)n1C [ANTIPYRINE]
AC50 [1]: > 30 µM
AC50 [7]: > 30 µM
AC50 [2]: > 30 µM
AC50 [8]: > 30 µM
AC50 [9]: > 30 µM
AC50 [4]: > 10 µM
AC50 [5]: > 10 µM

O=C(O)CCNC(=O)c1ccc(/N=N/c2ccc(O)c(C(=O)O)c2)cc1 [BALSALAZIDE]
AC50 [2]: > 30 µM
AC50 [3]: > 30 µM
AC50 [4]: > 30 µM
AC50 [6]: > 30 µM
AC50 [5]: > 30 µM

O=C(CCCN1CCC(O)(c2ccc(Br)cc2)CC1)c1ccc(F)cc1 [BROMPERIDOL]
AC50 [7]: > 30 µM
AC50 [3]: 1.2 µM
AC50 [10]: 20 µM
AC50 [8]: > 30 µM
AC50 [9]: > 30 µM
AC50 [6]: 2 µM

COc1cc(N)c(Cl)cc1C(=O)NC1CCN(CCCOc2ccc(F)cc2)CC1OC (stereo not given) [CISAPRIDE]
AC50 [1]: > 30 µM
AC50 [7]: > 30 µM
AC50 [2]: > 30 µM
AC50 [3]: > 10 µM
AC50 [8]: > 30 µM
AC50 [9]: > 30 µM
AC50 [4]: > 10 µM
AC50 [5]: 0.593 µM

CC(CN(C)C)C(C)(O)Cc1ccc(Cl)cc1 (stereo not given) [CLOBUTINOL]
AC50 [1]: > 30 µM
AC50 [11]: > 10 µM
AC50 [7]: > 30 µM
AC50 [2]: > 30 µM
AC50 [3]: > 10 µM
AC50 [10]: > 10 µM
AC50 [8]: > 30 µM
AC50 [12]: > 10 µM
AC50 [9]: > 30 µM
AC50 [4]: > 10 µM
AC50 [5]: > 10 µM

CCOC(=O)C(C)(C)Oc1ccc(Cl)cc1 [CLOFIBRATE]
AC50 [1]: > 30 µM
AC50 [7]: > 30 µM
AC50 [2]: > 30 µM
AC50 [3]: > 10 µM
AC50 [8]: > 30 µM
AC50 [9]: > 30 µM
AC50 [4]: > 10 µM
AC50 [5]: > 10 µM

C[C@@H]1C[C@H]2[C@@H]3CCC4=CC(=O)C=C[C@]4(C)[C@@]3(F)[C@@H](O)C[C@]2(C)[C@@]1(O)C(=O)CO [DEXAMETHASONE]
AC50 [1]: > 30 µM
AC50 [2]: > 30 µM
AC50 [3]: > 10 µM
AC50 [4]: > 10 µM
AC50 [6]: > 30 µM
AC50 [5]: > 30 µM

CCN1CC(CCN2CCOCC2)C(c2ccccc2)(c2ccccc2)C1=O (stereo not given) [DOXAPRAM]
AC50 [3]: > 30 µM
AC50 [8]: > 30 µM
AC50 [9]: > 30 µM
AC50 [6]: > 30 µM

CCCCOc1ccc(C(=O)CCN2CCCCC2)cc1 [DYCLONINE]
AC50 [1]: > 10 µM
AC50 [11]: > 10 µM
AC50 [7]: > 30 µM
AC50 [2]: > 30 µM
AC50 [3]: > 10 µM
AC50 [10]: > 10 µM
AC50 [8]: > 30 µM
AC50 [12]: 8.5 µM
AC50 [9]: > 30 µM
AC50 [4]: > 10 µM
AC50 [5]: 9.66 µM

CC(C)NC[C@H](O)COc1ccc(CC(N)=O)cc1 [ESATENOLOL]
AC50 [2]: > 30 µM
AC50 [3]: > 10 µM
AC50 [5]: > 10 µM

CCOC(=O)c1ncn2c1CN(C)C(=O)c1cc(F)ccc1-2 [FLUMAZENIL]
AC50 [1]: > 30 µM
AC50 [2]: > 30 µM
AC50 [3]: > 10 µM
AC50 [4]: > 30 µM
AC50 [6]: > 30 µM
AC50 [5]: > 10 µM

NNC(=O)c1ccncc1 [ISONIAZID]
AC50 [1]: > 30 µM
AC50 [2]: > 30 µM
AC50 [3]: > 10 µM
AC50 [8]: > 30 µM
AC50 [9]: > 30 µM
AC50 [4]: > 30 µM
AC50 [6]: > 30 µM
AC50 [5]: > 10 µM

O=C1Nc2ccc(Cl)cc2C(c2ccccc2Cl)=NC1O (stereo not given) [LORAZEPAM]
AC50 [1]: > 30 µM
AC50 [7]: > 30 µM
AC50 [2]: > 30 µM
AC50 [3]: > 10 µM
AC50 [8]: > 30 µM
AC50 [9]: > 30 µM
AC50 [4]: > 10 µM
AC50 [5]: > 10 µM

COc1ccc2cc(CCC(C)=O)ccc2c1 [NABUMETONE]
AC50 [1]: > 30 µM
AC50 [2]: > 10 µM
AC50 [3]: > 10 µM
AC50 [4]: > 10 µM
AC50 [6]: > 30 µM
AC50 [5]: > 30 µM

Cc1ccnc2c1NC(=O)c1cccnc1N2C1CC1 [NEVIRAPINE]
AC50 [1]: > 10 µM
AC50 [7]: > 30 µM
AC50 [2]: > 30 µM
AC50 [3]: > 10 µM
AC50 [8]: > 30 µM
AC50 [9]: > 30 µM
AC50 [4]: > 10 µM
AC50 [5]: > 10 µM

C[C@]12C/C(=C/O)C(=O)C[C@@H]1CC[C@@H]1[C@@H]2CC[C@@]2(C)[C@H]1CC[C@]2(C)O [OXYMETHOLONE]
AC50 [7]: > 30 µM
AC50 [8]: > 30 µM
AC50 [9]: > 30 µM
AC50 [6]: > 30 µM

Fc1ccc([C@@H]2CCNC[C@H]2COc2ccc3c(c2)OCO3)cc1 [PAROXETINE]
AC50 [2]: > 30 µM
AC50 [3]: > 10 µM
AC50 [4]: 2.72 µM

NC(=O)NC(=O)Cc1ccccc1 [PHENACEMIDE]
AC50 [1]: > 30 µM
AC50 [2]: > 10 µM
AC50 [3]: > 10 µM
AC50 [4]: > 10 µM
AC50 [5]: > 10 µM

CCCN(CCC)S(=O)(=O)c1ccc(C(=O)O)cc1 [PROBENECID]
AC50 [1]: > 30 µM
AC50 [2]: > 10 µM
AC50 [3]: > 10 µM
AC50 [4]: > 10 µM
AC50 [5]: > 10 µM

CCC(=O)O[C@](Cc1ccccc1)(c1ccccc1)[C@H](C)CN(C)C [PROPOXYPHENE]
AC50 [1]: 0.693 µM
AC50 [11]: > 10 µM
AC50 [7]: > 30 µM
AC50 [2]: > 30 µM
AC50 [3]: > 10 µM
AC50 [10]: > 10 µM
AC50 [8]: > 30 µM
AC50 [12]: > 10 µM
AC50 [9]: > 30 µM
AC50 [4]: > 10 µM
AC50 [6]: 0.17 µM
AC50 [5]: 8.05 µM

O=c1c(O)c(-c2ccc(O)c(O)c2)oc2cc(O)cc(O)c12 [QUERCETIN]
AC50 [11]: > 10 µM
AC50 [2]: > 30 µM
AC50 [3]: > 10 µM
AC50 [10]: > 10 µM
AC50 [12]: > 10 µM

Cc1cc(C)nc(NS(=O)(=O)c2ccc(N)cc2)n1 [SULFAMETHAZINE]
AC50 [1]: > 30 µM
AC50 [2]: > 10 µM
AC50 [3]: > 10 µM
AC50 [4]: > 10 µM
AC50 [6]: > 30 µM
AC50 [5]: > 30 µM

CCOC(=O)c1ccc(C#Cc2ccc3c(c2)C(C)(C)CCS3)nc1 [TAZAROTENE]
AC50 [1]: > 30 µM
AC50 [11]: > 10 µM
AC50 [7]: > 30 µM
AC50 [2]: > 30 µM
AC50 [10]: > 10 µM
AC50 [12]: > 10 µM
AC50 [4]: > 10 µM
AC50 [5]: > 10 µM

COc1cc(C(=O)NC2CCCNC2)cc(OC)c1OC (stereo not given) [TROXIPIDE]
AC50 [8]: > 30 µM
AC50 [9]: > 30 µM
AC50 [6]: > 30 µM

CCCCCCCC(=O)CC[C@@H]1[C@@H](C/C=C\CCCC(=O)OC(C)C)[C@@H](O)C[C@H]1O [UNOPROSTONE ISOPROPYL]
AC50 [10]: > 30 µM
AC50 [12]: > 30 µM

CC(c1cc2ccccc2s1)N(O)C(N)=O (stereo not given) [ZILEUTON]
AC50 [1]: > 30 µM
AC50 [2]: > 10 µM
AC50 [8]: > 30 µM
AC50 [9]: > 30 µM
AC50 [4]: > 10 µM
AC50 [5]: > 10 µM
